Assays:
Assay in all cases: relative viability (nuclei count vs DMSO), 5 days (fraction); higher = more cells survive
RO-3306 + OSI-027 = compound: C1=CC2=C(C=CC(=C2)C=C3C(=O)NC(=NCC4=CC=CS4)S3)N=C1 [RO-3306] + COc1cccc2cc(-c3nc([C@H]4CC[C@H](C(=O)O)CC4)n4ncnc(N)c34)[nH]c12 [OSI-027] (partner 0.5 µM)
In short: (§1)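 One day after seeding in 1536-well plates, lung cancer cell lines were dosed by pin tool. Dosing was either single-drug or a fixed anchor-drug dose plus five library-drug doses (not always all listed) in √10 steps. After 5 days, nuclei were stained in one fix-and-stain step and counted on 4× images, and relative viability is the nuclei count of treated wells over that of vehicle wells, given as the median of duplicate plates.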

RO-3306 + Vorinostat = compound: C1=CC2=C(C=CC(=C2)C=C3C(=O)NC(=NCC4=CC=CS4)S3)N=C1 [RO-3306] + O=C(CCCCCCC(=O)Nc1ccccc1)NO [Vorinostat] (partner 1 µM)
In short: as §1

[1] = compound: O=S(=O)(c1ccccc1)N(CC(F)(F)F)c1ccc(C(O)(C(F)(F)F)C(F)(F)F)cc1 + COc1cc2c(Oc3ccc(NC(=O)C4(C(=O)Nc5ccc(F)cc5)CC4)cc3F)ccnc2cc1OCCCN1CCOCC1 [Foretinib] (partner 0.25 µM)
In short: as §1

[2] = compound: O=S(=O)(c1ccccc1)N(CC(F)(F)F)c1ccc(C(O)(C(F)(F)F)C(F)(F)F)cc1 + CS(=O)(=O)N1CCN(Cc2cc3nc(-c4cccc5[nH]ncc45)nc(N4CCOCC4)c3s2)CC1 [Pictilisib] (partner 1 µM)
In short: as §1

[3] = compound: O=S(=O)(c1ccccc1)N(CC(F)(F)F)c1ccc(C(O)(C(F)(F)F)C(F)(F)F)cc1 + O=C(c1cc(Cc2n[nH]c(=O)c3ccccc23)ccc1F)N1CCN(C(=O)C2CC2)CC1 [Olaparib] (partner 8 µM)
In short: as §1

Cell Line	relative viability (RO-3306 + OSI-027; first compound 0.01 µM)	relative viability (RO-3306 + OSI-027; first compound 0.1 µM)	relative viability (RO-3306 + OSI-027; first compound 0.3162 µM)	relative viability (RO-3306 + OSI-027; first compound 1 µM)	relative viability (RO-3306 + Vorinostat; first compound 0.01 µM)	relative viability (RO-3306 + Vorinostat; first compound 0.03162 µM)	relative viability (RO-3306 + Vorinostat; first compound 0.1 µM)	relative viability (RO-3306 + Vorinostat; first compound 0.3162 µM)	relative viability (RO-3306 + Vorinostat; first compound 1 µM)	relative viability ([1]; first compound 0.8 µM)	relative viability ([1]; first compound 2.53 µM)	relative viability ([1]; first compound 8 µM)	relative viability ([2]; first compound 0.8 µM)	relative viability ([2]; first compound 2.53 µM)	relative viability ([2]; first compound 8 µM)	relative viability ([3]; first compound 0.8 µM)	relative viability ([3]; first compound 2.53 µM)	relative viability ([3]; first compound 8 µM)	relative viability (RO-3306 + OSI-027; first compound 0.03162 µM)
LK-2	0.209	0.157	0.17	0.202	0.293	0.248	0.324	0.275	0.295	1.21	1.16	0.835	0.628	0.752	0.493	0.918	0.845	0.816	–
LOU-NH91	0.686	0.711	0.719	0.686	0.857	0.828	0.854	0.871	0.866	0.999	0.884	0.937	0.539	0.564	0.515	0.966	0.935	0.913	0.712
LU99A	0.296	0.297	0.317	0.274	0.648	0.626	0.461	0.432	0.388	0.785	0.773	0.725	0.296	0.293	0.271	0.253	0.248	0.392	0.284
NCI-H522	0.68	0.622	0.711	0.715	0.93	0.792	0.98	0.959	0.801	–	–	–	–	–	–	0.597	0.614	0.714	0.695
NCI-H1299	–	–	–	–	–	–	–	–	–	1.1	1.07	1	0.875	0.78	0.663	0.961	0.949	0.96	–
NCI-H1563	0.671	0.736	0.735	0.725	–	–	–	–	–	0.922	0.827	0.893	0.734	0.655	0.581	–	–	–	0.733
NCI-H1623	0.408	0.45	0.368	0.405	–	–	–	–	–	0.802	0.805	0.851	–	–	–	–	–	–	0.384
NCI-H1648	0.247	0.289	0.249	0.241	0.348	–	0.291	0.408	0.351	–	–	–	–	–	–	0.835	0.542	0.602	–
NCI-H1703	–	–	–	–	–	–	–	–	–	0.339	0.23	0.29	0.253	0.211	0.218	0.53	0.387	0.446	–
NCI-H1792	0.896	0.743	0.81	0.551	–	–	–	–	–	–	–	–	0.191	0.184	0.165	0.402	0.274	0.189	–
NCI-H2342	0.664	0.616	0.575	0.596	0.691	0.687	0.735	0.751	0.76	1.15	1.03	0.951	–	–	–	0.475	0.504	0.429	0.559
SW 900	0.486	0.467	0.551	0.266	0.574	0.272	0.462	0.535	0.34	0.752	0.784	0.82	–	–	–	0.838	0.901	0.706	0.427

— the supplement of paper PMC10307832
